Among the data in ChEMBL document CHEMBL1157596, “Colony stimulating factor-1 receptor as a target for small molecule inhibitors” (Bioorg Med Chem, 2010) are Activity values, retold here.

Holding throughout (assay type): cell-based
Common to all, as to set-up: scale not given: the % may be the effect or the level left

In assay [1] the target is Macrophage colony-stimulating factor 1 receptor (Homo sapiens) (UniProt P07333). Description: Inhibition of CSF1-stimulated human FMS autophosphorylation expressed in growth factor dependent mouse FDC-P1 cells assessed as phosphorylated receptor level at 1 nM relative to control by Western blot. Background: In western blotting, separated proteins are transferred to a membrane and probed.
Macrophage colony-stimulating factor 1 receptor (Homo sapiens), sequence (P07333 whole entry): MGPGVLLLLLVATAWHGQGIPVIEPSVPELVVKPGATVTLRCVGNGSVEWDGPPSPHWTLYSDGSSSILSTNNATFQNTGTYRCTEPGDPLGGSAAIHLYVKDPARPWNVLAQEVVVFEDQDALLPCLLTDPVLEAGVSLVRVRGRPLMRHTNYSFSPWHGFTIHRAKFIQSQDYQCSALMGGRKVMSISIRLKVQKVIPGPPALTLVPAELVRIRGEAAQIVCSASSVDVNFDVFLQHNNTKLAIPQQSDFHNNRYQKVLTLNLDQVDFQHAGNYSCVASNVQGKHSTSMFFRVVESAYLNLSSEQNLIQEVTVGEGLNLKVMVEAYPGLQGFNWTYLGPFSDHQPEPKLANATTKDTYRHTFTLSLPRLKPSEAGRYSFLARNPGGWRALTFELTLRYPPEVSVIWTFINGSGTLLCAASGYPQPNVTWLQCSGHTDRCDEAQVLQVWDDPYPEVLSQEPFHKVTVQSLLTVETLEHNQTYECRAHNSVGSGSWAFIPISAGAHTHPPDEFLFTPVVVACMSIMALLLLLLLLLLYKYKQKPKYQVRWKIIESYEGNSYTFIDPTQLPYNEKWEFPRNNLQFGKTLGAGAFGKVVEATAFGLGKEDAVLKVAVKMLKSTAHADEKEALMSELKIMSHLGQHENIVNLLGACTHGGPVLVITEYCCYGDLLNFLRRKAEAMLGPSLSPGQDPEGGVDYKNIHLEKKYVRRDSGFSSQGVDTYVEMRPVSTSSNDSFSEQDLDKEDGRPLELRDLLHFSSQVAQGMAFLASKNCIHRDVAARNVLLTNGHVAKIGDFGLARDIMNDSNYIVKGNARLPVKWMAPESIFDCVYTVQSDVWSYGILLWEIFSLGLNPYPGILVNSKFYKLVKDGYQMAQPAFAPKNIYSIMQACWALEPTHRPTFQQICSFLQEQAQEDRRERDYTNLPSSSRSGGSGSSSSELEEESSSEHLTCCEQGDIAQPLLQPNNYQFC

Assay [2] shares this target. Nature of the assay: Inhibition of CSF1-stimulated human FMS autophosphorylation expressed in growth factor dependent mouse FDC-P1 cells assessed as phosphorylated receptor level at 500 nM relative to control by Western blot.
For assay [3] the target is unchanged. Description: Inhibition of CSF1-stimulated human FMS autophosphorylation expressed in growth factor dependent mouse FDC-P1 cells assessed as phosphorylated receptor level at 50 nM relative to control by Western blot.
The target is the same in assay [4]. Description: Inhibition of CSF1-stimulated human FMS autophosphorylation expressed in growth factor dependent mouse FDC-P1 cells assessed as phosphorylated receptor level at 5 nM relative to control by Western blot.
The target is the same in assay [5]. Nature of the assay: Inhibition of CSF1-stimulated human FMS autophosphorylation expressed in growth factor dependent mouse FDC-P1 cells assessed as phosphorylated receptor level at 10 uM relative to control by Western blot.
For assay [6] the target is unchanged. Nature of the assay: Inhibition of CSF1-stimulated human FMS autophosphorylation expressed in growth factor dependent mouse FDC-P1 cells assessed as phosphorylated receptor level at 3.3 uM relative to control by Western blot.
Assay [7] shares this target. Description: Inhibition of CSF1-stimulated human FMS autophosphorylation expressed in growth factor dependent mouse FDC-P1 cells assessed as phosphorylated receptor level at 1.1 uM relative to control by Western blot.
Assay [8] has the same target. Description: Inhibition of CSF1-stimulated human FMS autophosphorylation expressed in growth factor dependent mouse FDC-P1 cells assessed as phosphorylated receptor level at 0.33 uM relative to control by Western blot.
The target is the same in assay [9]. Description: Inhibition of CSF1-stimulated human FMS autophosphorylation expressed in growth factor dependent mouse FDC-P1 cells assessed as phosphorylated receptor level at 0.11 uM relative to control by Western blot.
Assay [10] has the same target. Nature of the assay: Inhibition of CSF1-stimulated human FMS autophosphorylation expressed in growth factor dependent mouse FDC-P1 cells assessed as phosphorylated receptor level at 31 nM relative to control by Western blot.

Take `C[C@]12O[C@H](C[C@]1(O)CO)n1c3ccccc3c3c4c(c5c6ccccc6n2c5c31)CNC4=O`: in [1], the Activity was 85%.
With `CO[C@@H]1[C@H](N(C)C(=O)c2ccccc2)C[C@H]2O[C@]1(C)n1c3ccccc3c3c4c(c5c6ccccc6n2c5c31)C(=O)NC4`, the figures for the Activity in assay [2], in assay [3] and in assay [4] were 3%, 21% and 110%, respectively.
As for `CN(C)S(=O)(=O)c1ccc2c(c1)/C(=C/c1cc3c([nH]1)CCCC3)C(=O)N2`, the Activity in [5] was found to be 106%; in assay [6], 97%; in [7], 104%; in [8], 109%; in [9] it was 104%.
On to `CCN(CC)CCNC(=O)c1c(C)[nH]c(/C=C2\C(=O)Nc3ccc(F)cc32)c1C`, for which the Activity is 2% in assay [2], 90% in assay [1] and 37% in assay [10].
